Source: patent publication US10517889B2, “Modulators of SMAD7 expression” (Ionis Pharmaceuticals, Inc., priority 2017, dated 2019)
pIC50: −log10 of the molar value. Strand notation (5' to 3'): a small letter for the sugar, then the base; units joined by * are phosphorothioate-linked, units joined directly phosphodiester-linked; [ ] holds rarer units or linkages, { } end groups; capitals alone tell only the bases. k = constrained ethyl (cEt); [5mC] = 5-methylcytosine; d = 2'-deoxy (DNA)

What was measured:
[1] = tested on: human SMAD7 mRNA; test: Antisense inhibition of human SMAD7 mRNA expression in Hep3B cells by 3-10-3 cEt gapmers, 10,000 nM, electroporation (Example 2); assay type: cell-based; conditions: approximately 24 hours; for % inhibition of SMAD7 mRNA expression: electroporation, 10,000 nM antisense oligonucleotide, RTS5062, relative to untreated control cells
Procedure, shortened: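 SMAD7 mRNA was measured by real-time PCR (RTS5062) with RiboGreen total-RNA normalization, about 24 h after 10,000 nM gapmer was delivered by electroporation into Hep3B cells at 20,000 per well. Gapmers were 16-mer 3-10-3 cEt, fully phosphorothioate; values are % inhibition versus untreated controls.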

[2] = tested on: human SMAD7 mRNA; test: Dose-dependent inhibition of human SMAD7 mRNA expression in Hep3B cells (Example 3, Study 1 and 2); assay type: cell-based; conditions: electroporation; for % inhibition of SMAD7 mRNA expression: approximately 16 hours; for pIC50: Study 2 (740-20000 nM)
Procedure, shortened: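 Hep3B cells, 20,000 per well, electroporated with antisense oligonucleotide at 0.31, 1.25, 5.00 or 20.00 μM (first series) or 0.74, 2.22, 6.67 or 20.00 μM (second series). After ~16 h, SMAD7 mRNA measured by RT-qPCR (RTS5062), normalised to RIBOGREEN total RNA. Percent inhibition vs untreated cells; IC50 derived.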

[3] = 740 nM, Study 2, relative to untreated control cells
[4] = Hep3B cells, electroporation with 10,000 nM antisense oligonucleotide, RTS5062, percent inhibition of SMAD7 mRNA relative to untreated control cells
[5] = Hep3B cells, 10,000 nM antisense oligonucleotide, electroporation, RT-PCR primer probe set RTS5062, relative to untreated control cells

Substance	% inhibition of SMAD7 mRNA expression ([1]; Hep3B cells) [%]	% inhibition of SMAD7 mRNA expression [2, 3] [%]	% inhibition of SMAD7 mRNA expression ([2]; 2220 nM, Study 2) [%]	% inhibition of SMAD7 mRNA expression ([2]; 6670.0 nM, Study 2) [%]	% inhibition of SMAD7 mRNA expression ([2]; 20000.0 nM, Study 2) [%]	pIC50 [2]	% Inhibition [1, 4] [%]	% Inhibition [1, 5] [%]	% Inhibition ([1]; Hep3B cells, electroporation with 10,000 nM antisense oligonucleotide, SMAD7 mRNA by RT-PCR (RTS5062), relative to untreated control cells) [%]
799674 (antisense kG*kA*kT*d[5mC]*dA*d[5mC]*dA*dA*dT*dT*d[5mC]*d[5mC]*dA*kA*kG*k[5mC]) [compound 799674]	48	16	35	64	91	4.85	–	–	–
799686 (antisense kG*kA*kG*dA*dT*dT*dT*dT*dA*dA*dA*dT*dG*k[5mC]*kT*kG) [compound 799686]	–	18	35	36	56	5.70	62	–	–
799689 (antisense kT*kG*k[5mC]*dT*dA*d[5mC]*dA*dG*dT*dG*dT*d[5mC]*dA*k[5mC]*k[5mC]*kA) [compound 799689]	–	34	49	65	73	5.30	63	–	–
799708 (antisense k[5mC]*kA*kA*dA*d[5mC]*dT*dT*dG*dT*dG*dG*dT*dA*kA*kA*kA) [compound 799708]	–	15	35	52	79	4.96	60	–	–
799709 (antisense kT*k[5mC]*kA*dA*dA*d[5mC]*dT*dT*dG*dT*dG*dG*dT*kA*kA*kA) [compound 799709]	–	0	27	36	62	5.15	60	–	–
799711 (antisense kG*kG*kT*d[5mC]*dA*dA*dA*d[5mC]*dT*dT*dG*dT*dG*kG*kT*kA) [compound 799711]	–	36	47	51	54	5.30	60	–	–
799712 (antisense kA*kT*kA*dG*dA*dT*dT*dA*dT*d[5mC]*d[5mC]*dA*dA*kG*kT*kA) [compound 799712]	70	27	45	55	63	5.52	–	–	–
799718 (antisense k[5mC]*kT*kG*d[5mC]*dT*dA*dG*dG*dG*dA*dT*dA*d[5mC]*kT*kG*kA) [compound 799718]	65	23	52	66	72	5.40	–	–	–
799722 (antisense kG*k[5mC]*kA*dG*dA*dG*dT*dG*dA*dG*dA*dA*d[5mC]*kA*kA*kG) [compound 799722]	–	17	38	53	82	5.30	67	–	–
799734 (antisense kT*k[5mC]*k[5mC]*d[5mC]*dA*dG*dG*dT*dG*dA*dA*d[5mC]*d[5mC]*k[5mC]*kA*k[5mC]) [compound 799734]	45	8	44	64	67	5.10	–	–	–
799743 (antisense k[5mC]*kT*kG*dG*dA*dG*dT*dT*dA*dT*dT*d[5mC]*dT*k[5mC]*kA*kA) [compound 799743]	–	0	43	44	64	5.30	51	–	–
799751 (antisense kG*kA*kG*d[5mC]*dT*dA*dA*dT*dG*dA*d[5mC]*dA*d[5mC]*kT*kG*kG) [compound 799751]	60	11	35	69	65	5.00	–	–	–
799753 (antisense k[5mC]*kG*kT*dG*dA*dG*dT*dA*dA*dA*dT*dT*d[5mC]*kT*kT*kA) [compound 799753]	69	0	33	32	66	5.40	–	–	–
799755 (antisense kG*kA*kA*dA*dG*dT*dT*dA*d[5mC]*dA*dG*dA*dA*k[5mC]*kT*k[5mC]) [compound 799755]	77	13	44	66	75	5.22	–	–	–
799759 (antisense kA*k[5mC]*k[5mC]*dA*dT*dA*dT*d[5mC]*dA*d[5mC]*dT*d[5mC]*d[5mC]*kT*kT*k[5mC]) [compound 799759]	66	22	44	45	66	5.70	–	–	–
799781 (kG*kT*k[5mC]*dA*dA*dT*dA*d[5mC]*dA*dT*dA*dT*dT*kT*kG*k[5mC]; antisense) [compound 799781]	–	23	75	72	92	< 4.70	66	–	–
799787 (k[5mC]*k[5mC]*kA*dA*dA*dG*d[5mC]*dA*dG*dA*dA*dG*dT*kA*kG*kA; antisense) [compound 799787]	–	0	9	35	41	4.74	58	–	–
799791 (kG*kG*kG*dA*dG*dA*d[5mC]*d[5mC]*dT*dA*d[5mC]*d[5mC]*dT*k[5mC]*kT*kG; antisense) [compound 799791]	56	11	4	29	60	5.22	–	–	–
799808 (antisense kG*k[5mC]*kT*dG*dA*dA*dA*dG*dA*dA*dA*dG*dT*k[5mC]*k[5mC]*k[5mC]) [compound 799808]	–	8	33	52	73	5.00	70	–	–
799851 (kA*kA*kG*dT*dG*dT*d[5mC]*d[5mC]*dA*dT*d[5mC]*dA*dA*kG*k[5mC]*kA; antisense) [compound 799851]	–	15	36	46	57	5.70	–	70	–
799854 (kG*k[5mC]*k[5mC]*dA*dA*dG*dT*dG*dT*d[5mC]*d[5mC]*dA*dT*k[5mC]*kA*kA; antisense) [compound 799854]	–	21	56	80	79	5.30	–	45	–
799858 (kG*kT*kA*dA*dT*dT*dT*dA*dG*d[5mC]*dA*dA*dT*kT*k[5mC]*k[5mC]; antisense) [compound 799858]	–	18	43	48	71	5.70	–	64	–
799878 (kG*k[5mC]*k[5mC]*d[5mC]*d[5mC]*d[5mC]*d[5mC]*dT*d[5mC]*d[5mC]*d[5mC]*d[5mC]*dG*kT*kG*k[5mC]; antisense) [compound 799878]	–	35	64	68	84	4.77	–	70	–
799904 (antisense kA*k[5mC]*kT*d[5mC]*dA*dG*dA*dG*d[5mC]*dA*dG*d[5mC]*dT*k[5mC]*kT*k[5mC]) [compound 799904]	–	3	9	23	62	5.10	–	–	61
